Source: patent US20250230138A1, “COMPOUNDS HAVING A T-STRUCTURE FORMED BY AT LEAST FOUR CYCLES FOR USE IN THE TREATMENT OF CANCER AND OTHER INDICATIONS” (TheRas, Inc., priority 2022, published 2025)
Like-named read-outs stand apart in the source and are kept apart here.

What was measured:
pAKT in BT474 cells = experiment: Cell-based pAKT HTRF assay in BT474 cells; details: BT474 cells, 4 hr incubation, read-out: pAKT inhibition IC50 in BT474 cells
Procedure, shortened: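 The HTRF signal (excitation 320 nm, emission 615 nm) came from d2/Eu Cryptate antibodies added to lysates and incubated 4–24 h at room temperature. Those lysates were taken from cells treated for 4 hr with compound, top concentration 3 μM, in 0.25% DMSO.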

[1] = biological target: Cys242 in human PIK3CA (157-299) (Homo sapiens (Human), UniProt P42336); experiment: Covalent modification assay using MALDI-TOF MS; format: biochemical; details: 4 h reaction time point
Sequence of Cys242 in human PIK3CA (157-299) (P42336 157-299): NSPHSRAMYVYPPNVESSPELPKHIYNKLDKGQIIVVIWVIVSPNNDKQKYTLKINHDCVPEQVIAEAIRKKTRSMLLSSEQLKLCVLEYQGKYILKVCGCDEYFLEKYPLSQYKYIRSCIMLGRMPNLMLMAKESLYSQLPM
Procedure, shortened: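 PIK3CA (157-299), 3.33 or 1 μM in 20 mM HEPES, 150 mM NaCl, 2 mM MgCl2, pH 7.3, was incubated with compound at room temperature in the dark for 15 min, 30 min, 2 h or 4 h. Linear MALDI-TOF read-out; % modification = adduct peak height over summed heights of all protein species.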

[2] = 3.33 μM protein target, 1:7.5 protein to compound ratio (compounds 1-852)
[3] = 1 μM protein target, 1:5 protein to compound ratio (compounds 853-1279)
[4] = Homo sapiens, BT-474, Compounds 10-999

Row | SMILES | IC50 (pAKT in BT474 cells; Compounds 10-999) | IC50 (pAKT in BT474 cells; Compounds 1000-1279) | IC50 (pAKT in BT474 cells; [4]) | % of modification [1, 2] | % of modification [1, 3]
1 | C=CC(=O)N1CCn2nc(-c3nc(-c4ccc5c(c4)CNC(=O)C5)c4ccsc4c3-c3c(F)cc(F)cc3OCC(C)(C)O)cc2C1C (stereo not drawn) [Compound 1139] | – | < 100 nM | – | – | A (percent of modification of PIK3CA protein ≥75%)
2 | C=CC(=O)N1Cc2cc(-c3nc(-c4ccc(=O)n(CCN(C)C)c4)c4ccsc4c3-c3c(F)cc(F)cc3OCCOC)nn2C[C@H]1C [Compound 880] | < 100 nM | – | – | – | A (percent of modification of PIK3CA protein ≥75%)
3 | C=C(F)C(=O)N1CCn2nc(-c3nc(-c4ccc5c(c4)CCN(C)C5)c4ccsc4c3-c3c(F)cc(F)cc3OC(C)C)nc2C1 [Compound 314] | < 100 nM | – | – | A (percent of modification of PIK3CA protein ≥75%) | –
4 | C=CC(=O)N1CCn2nc(-c3nc(-c4cnn(C)c4)ccc3-c3ccc(F)cc3OC(C)C)cc2C1 [Compound 279, 1-[2-[3-(4-fluoro-2-isopropoxy-phenyl)-6-(1-methylpyrazol-4-yl)-2-pyridyl]-6,7-dihydro-4H-pyrazolo[1,5-a]pyrazin-5-yl]prop-2-en-1-one] | – | – | 100 to 1000 nM | A (percent of modification of PIK3CA protein ≥75%) | –
5 | C=CC(=O)N1CCn2nc(-c3nc(-c4ccc5c(c4)C(=O)N(C)C5)c4ccsc4c3-c3c(F)cc(F)cc3OCC(C)O)cc2C1C (stereo not drawn) [Compound 878] | < 100 nM | – | – | – | A (percent of modification of PIK3CA protein ≥75%)
6 | C=CC(=O)N1CCn2nc(-c3nc(-c4ccc5c(=O)n(C)ncc5c4)c4ccsc4c3-c3c(F)cc(F)cc3OCCO)cc2[C@H]1C [Compound 889] | < 100 nM | – | – | – | A (percent of modification of PIK3CA protein ≥75%)
7 | C=CC(=O)N1CCn2nc(-c3nc(-c4ccc5cn(C)nc5c4)c4ccsc4c3-c3c(F)cc(F)cc3OC[C@@H](C)O)cc2[C@@H]1C [Compound 770, 1-((S)-2-((S)-7-(2,4-difluoro-6-((R)-2-hydroxypropoxy)phenyl)-4-(2-methyl-2H-indazol-6-yl)thieno[3,2-c]pyridin-6-yl)-4-methyl-6,7-dihydropyrazolo[1,5-a]pyrazin-5(4H)-yl)prop-2-en-1-one] | < 100 nM | – | – | A (percent of modification of PIK3CA protein ≥75%) | –
8 | C=CC(=O)N1CCc2nc(-c3nc(-c4cnn(C)c4)c4ccsc4c3-c3c(F)cc(F)cc3OC(C)C)sc2C1 [Compound 339] | < 100 nM | – | – | A (percent of modification of PIK3CA protein ≥75%) | –
9 | C=CC(=O)N1CCn2nc(-c3nc(-c4ccc5ncn(C)c(=O)c5c4)c4ccsc4c3-c3c(F)cc(F)cc3OCCOC)cc2C1C (stereo not drawn) [Compound 915] | < 100 nM | – | – | – | A (percent of modification of PIK3CA protein ≥75%)
10 | C=CC(=O)N1CCn2nc(-c3nc(-c4cncc(C#N)c4)c4ccsc4c3-c3ccc(F)cc3OC(C)C)cc2C1 [Compound 259] | < 100 nM | – | – | A (percent of modification of PIK3CA protein ≥75%) | –
11 | C=CC(=O)N1Cc2cc(-c3nc(C45CC(CNC(C)=O)(C4)C5)c4ccsc4c3-c3c(F)cc(F)cc3OCCOC)nn2CC1C (stereo not drawn) [Compound 1246] | – | 100 to 1000 nM | – | – | B (50%<percent of modification <75%)
12 | C=CC(=O)N1CC(n2cc(-c3nc(-c4cnn(CC(N)=O)c4)c4ccsc4c3-c3ccc(F)cc3OCCOC)cn2)C1 [Compound 239] | < 100 nM | – | – | A (percent of modification of PIK3CA protein ≥75%) | –
13 | C=CC(=O)N1CCn2nc(-c3nc(-c4ccc5c(c4)CNC5=O)c4c(c3-c3c(F)cc(F)cc3OCCOC)CCC4)cc2[C@H]1C [Compound 1174, 5-((R)-3-((R)-5-acryloyl-4-methyl-4,5,6,7-tetrahydropyrazolo[1,5-a]pyrazin-2-yl)-4-(2,4-difluoro-6-(2-methoxyethoxy)phenyl)-6,7-dihydro-5H-cyclopenta[c]pyridin-1-yl)isoindolin-1-one] | – | < 100 nM | – | – | A (percent of modification of PIK3CA protein ≥75%)
14 | C=CC(=O)N1Cc2cc(-c3nc(-c4cn(C)cn4)c4ccsc4c3-c3c(F)cc(F)cc3OC[C@@H](C)O)nn2C[C@H]1C [Compound 745] | < 100 nM | – | – | A (percent of modification of PIK3CA protein ≥75%) | –
15 | C=CC(=O)N1[C@H](C)Cn2nc(-c3nc(-c4ccc5c(c4)CCN(C)C5)c4ccsc4c3-c3c(F)cc(F)cc3OCCOC)cc2[C@@H]1C [Compound 480, 1-((4S,6R)-2-(7-(2,4-difluoro-6-(2-methoxyethoxy)phenyl)-4-(2-methyl-1,2,3,4-tetrahydroisoquinolin-6-yl)thieno[3,2-c]pyridin-6-yl)-4,6-dimethyl-6,7-dihydropyrazolo[1,5-a]pyrazin-5(4H)-yl)prop-2-en-1-one] | – | – | < 100 nM | A (percent of modification of PIK3CA protein ≥75%) | –
16 | C=CC(=O)N1CCn2nc(-c3nc(-c4ccc(N(C)C)nc4)c4ccsc4c3-c3c(F)cc(F)cc3OCCOC)cc2C1C (stereo not drawn) [Compound 982] | < 100 nM | – | – | – | A (percent of modification of PIK3CA protein ≥75%)
17 | C=CC(=O)N1CCn2nc(-c3nc(-c4ccc5c(cnn5C)c4)c4ccsc4c3-c3c(F)cc(F)cc3OCC(C)(C)O)cc2C1C (stereo not drawn) [Compound 1125] | – | 100 to 1000 nM | – | – | A (percent of modification of PIK3CA protein ≥75%)
18 | C=CC(=O)N1CCn2nc(-c3nc(-c4ccc5c(c4)C4(CC4)CN(C)C5)c4ccsc4c3-c3c(F)cc(F)cc3OCCO)cc2C1C (stereo not drawn) [Compound 1197] | – | < 100 nM | – | – | A (percent of modification of PIK3CA protein ≥75%)

Further lines, with some results ahead:

Row | IC50 (pAKT in BT474 cells; Compounds 10-999) | IC50 (pAKT in BT474 cells; Compounds 1000-1279) | IC50 (pAKT in BT474 cells; [4]) | SMILES | % of modification [1, 2] | % of modification [1, 3]
19 | < 100 nM | – | – | C=CC(=O)N1CCn2nc(-c3nc(-c4ccc5c(c4)CCN(C)C5)c4ccsc4c3-c3ccc(F)cc3OCCOC)cc2C1 [Compound 242] | A (percent of modification of PIK3CA protein ≥75%) | –
20 | < 100 nM | – | – | C=CC(=O)N1CCc2nc(-c3nc(-c4cnn(CC(F)F)c4)c4ccsc4c3-c3ccc(F)cc3OCCOC)sc2C1 [Compound 125] | A (percent of modification of PIK3CA protein ≥75%) | –
21 | < 100 nM | – | – | C=CC(=O)N1CCn2nc(-c3nc(-c4ccc5c(c4)[C@H](O)CC5)c4ccsc4c3-c3ccc(F)cc3OCCOC)cc2C1 [Compound 257] | A (percent of modification of PIK3CA protein ≥75%) | –
22 | < 100 nM | – | – | C=CC(=O)N1CCc2nc(-c3nc(-c4ccc5c(c4)CCNC5)c4ccsc4c3-c3ccc(F)cc3OCC3CCNC(=O)C3)sc2C1 (stereo not drawn) [Compound 182] | A (percent of modification of PIK3CA protein ≥75%) | –
23 | 1000 to 3000 nM | – | – | C=CC(=O)N1CCc2nc(-c3nc(-c4ccc5c(c4)CNC5=O)c4ccsc4c3-c3c(F)cc(F)cc3OC(C)C)sc2C1 (single isomer, unassigned) [Compound 413] | D (percent of modification <25%) | –
24 | 100 to 1000 nM | – | – | C=CC(=O)N1CCc2nc(-c3nc(-c4cccc(C(C)(C)O)c4)c4ccsc4c3-c3c(F)cc(F)cc3OCCOC)sc2C1 [Compound 429] | A (percent of modification of PIK3CA protein ≥75%) | –
25 | 1000 to 3000 nM | – | – | C=CC(=O)N1CCc2nc(-c3nc(-c4ccc5c(c4)CCN(C)C5)c4ccsc4c3-c3c(F)cc(F)cc3OCCOC)sc2C1 (single isomer, unassigned) [Compound 449] | D (percent of modification <25%) | –
26 | – | 100 to 1000 nM | – | C=CC(=O)N1CCc2nc(-c3nc(-c4ccc5c(c4)CCN(CC(F)F)CC5)c4ccsc4c3-c3c(F)cc(F)cc3OCCOC)sc2C1 [Compound 1270] | – | A (percent of modification of PIK3CA protein ≥75%)
27 | 100 to 1000 nM | – | – | C=C(F)C(=O)N1CCn2nc(-c3nc(-c4ccc5c(c4)CCNC5=O)c4ccsc4c3-c3ccc(F)cc3OC(C)C)nc2C1 [Compound 256] | A (percent of modification of PIK3CA protein ≥75%) | –
28 | < 100 nM | – | – | C=CC(=O)N1CCc2ncc(-c3nc(-c4ccc5c(c4)C(O)CC5)c4ccsc4c3-c3c(F)cc(F)cc3OC(C)C)cc2C1 (stereo not drawn) [Compound 384] | A (percent of modification of PIK3CA protein ≥75%) | –
29 | < 100 nM | – | – | C=CC(=O)N1CCc2nc(-c3nc(-c4ccc5c(c4)CCC5N)c4ccsc4c3-c3ccc(F)cc3OCCOC)sc2C1 (stereo not drawn) [Compound 160] | A (percent of modification of PIK3CA protein ≥75%) | –
30 | < 100 nM | – | – | C=CC(=O)N1CCc2ncc(-c3nc(-c4ccc5c(c4)CNC5=O)c4ccsc4c3-c3ccc(F)cc3OC(C)C)cc2C1 [Compound 316] | A (percent of modification of PIK3CA protein ≥75%) | –
